Counter-ions that a name gives are not always drawn.
Experiments:
Assay type in all cases: in vivo
[1] = Acute toxicity per intraperitoneal route (LD50, method of Litchfield and Wilcoxon; Gleason classification); conditions: in vivo, ip; Swiss male mouse, suspension in 1% carboxymethylcellulose, observation 8 days
Description: (§1) The acute toxicity was assessed in the mouse of the Swiss type, having an average body weight of 20 g and of male sex, groups of 5 animals being used, according to the method of Litchfield and Wilcoxon (observation time: 8 days). The compounds were administered as a suspension in 1% carboxymethylcellulose.
(§2) The acute toxicity was low for all the examined compounds, as confirmed by the following table, in which those of the vincamine HCl and of the apovincamine are also reported.
(§3) In fact, for all the compounds, the toxicity, when evaluated according to the method of Gleason, can be classified as light, modest or negligible.

[2] = test system: mouse of the Swiss type; experiment: as above; conditions: Gleason toxicity class, mouse i.p.
Description: as §1, §2, §3

[3] = test system: vertebral arteria; experiment: Variation of the hematic flow at the vertebral arteria after i.v. administration (cerebral vasodilating activity); conditions: anestetized dog, i.v. (femoral vein) 5 mg/kg, left vertebral arteria, electromagnetic flowmeters
Description: The cerebral vasodilating activity was studied in the anestetized dog, by measuring, by means of Statham periarterial electromagnetic flowmeters, the hematic flow at the level of the vertebral arteria which, in such animal species, constitutes the greatest blood supply to the brain.
The results are reported in the TABLE as the percent variations of the flow measured at the level of the left vertebral arteria after the administration of the several compounds to be tested to groups of 4 animals for each compound. The results also confirm that the compounds of the invention are all endowed with a vasodilating activity at the level of the cerebral circulus. Such an action for some compounds is more relevant with respect to that of vincamine and of apovincamine.

[4] = Absorption: hematic levels at different times from the oral administration; conditions: blood, 100 mg/kg expressed as vincamine and apovincamine, suspension in 5% carboxymethyl cellulose, chromatographic method, read-out: max. conc. time (converted)
Description: All the compounds have been orally administered at the dosage of 100 mg/kg, expressed as vincamine and apovincamine, in form of a suspension in a 5% carboxymethyl cellulose solution.
The absorption was determined by evaluating the hematic levels at the following times (minutes): 0, 30, 120, 240, 480, 10 hours and 12 hours, at which it was possible to assess the time, from the administration, of the maximum hematic concentration.
The vincamine and apovincamine concentrations were assessed by chromatographic method.
For the evaluation of the prolonged action the following criterium was adopted; as derivatives having a long-acting effect, there are considered those which, 120 minutes after the administration, show hematic levels higher than those obtained with vincamine and apovincamine.

Row | SMILES | LD50 at 192 h [1] | Tox (Gleason) [2] | Percent variations of the hematic flow at the vertebral arteria [3] | Tmax [4]
1 | CC[C@]12CCCN3CC(O)c4c(n(c5ccccc45)C(O)(C(=O)OC)C1)[C@@H]32 (some centres unmarked) [6-hydroxyvincamine] | 900 mg/kg | modest | +33.4% | –
2 | CC[C@]12CCCN3CC(=O)c4c(n(c5ccccc45)[C@](O)(C(=O)OC)C1)[C@@H]32 [6-keto-16-epivincamine] | > 2000 mg/kg | negligible | +35.7% | –
3 | CC[C@@]12C=C(C(=O)OC)n3c4c(c5ccccc53)C(=O)CN(CCC1)[C@H]42 [6-ketoapovincamine] | > 2000 mg/kg | – | +29.2% | –
4 | CC[C@]12CCCN3CC(=O)c4c(n(c5ccccc45)[C@@](O)(C(=O)OC)C1)[C@@H]32 [6-ketovincamine] | > 2000 mg/kg | – | +28.4% | –
5 | CC[C@]12CCCN3CC(=O)c4c(n(c5ccccc45)C(O)(CO)C1)[C@@H]32 (some centres unmarked) [6-ketovincaminol] | 1500 mg/kg | light | +30.2% | –
6 | CC[C@]12CCCN3CC(=O)c4c(n(c5ccccc45)C(=O)C1)[C@@H]32 [6-ketovincamone] | > 2000 mg/kg | – | +30.2% | –
7 | CC[C@@]12C=C(C(=O)OC)n3c4c(c5ccccc53)CCN(CCC1)[C@H]42 [Apovincamine, reference compound] | > 2000 mg/kg | negligible | +25.6% | 60 min
8 | CC[C@]12CCCN3CCc4c(n(c5ccccc45)[C@@](O)(C(=O)OC)C1)[C@@H]32 [Vincamine HCl, reference compound] | 800 mg/kg | modest | +24.1% | 20 min
